According to patent US20110009469A1, “COMPOSITIONS AND METHODS OF TREATING NEOPLASIA” (The Johns Hopkins University, priority 2007, published 2011):

Assays:
Assay type in all cases: cell-based
[1] = system: miR-143 and miR-145 expression in HPNE-Kras^G12D cells; test: miR-143 and miR-145 expression by northern blot and qRT-PCR in HPNE-Kras^G12D cells; settings: HPNE-Kras^G12D cells treated with inhibitor
Text: (§1) Vista was used to generate pairwise alignments between the genomic sequence from human (May 2004 assembly) and the indicated species. The graph is a plot of nucleotide identity for a 100-bp sliding window centered at a given position. […] Expression of RNA transcripts was normalized to β-actin. FIG. 3C is a graph showing the results of a quantitative RT-PCR analysis of miR-143 and miR-145 expression in the cell lines described above. miRNA expression was normalized to 18S RNA. Error bars represent standard deviations.
(§2) U6 served as a loading control. […] Error bars represent standard deviations.
(§3) HPNE-Kras^G12D cells were infected with the anti-RREB-1 lentivirus-shRNA construct and selected in neomycin.
(§4) Kras activity leads to activation of both the Map Kinase (MAPK) cascade (also known as the RAF/MEK/MAPK pathway) and the phosphatidylinositol-3 kinase (PI3K) pathway. In order to determine which of these downstream effector pathways is involved in the Kras-RREB1-miR-143/145 pathway, levels of miR-143 and miR-145 were examined in HPNE-Kras^G12D cells treated with specific inhibitors that target MAPK and PI3K.

[2] = system: miR-143/145 primary transcript in HPNE-Kras^G12D cells; test: quantitative RT-PCR of miR-143/145 primary transcript in HPNE-Kras^G12D cells; settings: HPNE-Kras^G12D cells treated with inhibitor; qRT-PCR
Text: as §1, §2, §3, §4

[3] = system: RREB-1 expression in HPNE-Kras^G12D cells; test: qPCR of RREB-1 expression in HPNE-Kras^G12D cells; settings: HPNE-Kras^G12D cells treated with inhibitor
Text: as §1, §2, §3, §4

Compound | miR-143 and miR-145 expression [1] | level of the miR-143/145 primary transcript [2] | RREB-1 expression [3]
O=c1cc(N2CCOCC2)oc2c(-c3ccccc3)cccc12 [LY294002] | no effect | – | –
N#CC(=C(/N)Sc1ccccc1N)/C(C#N)=C(\N)Sc1ccccc1N [U0126, 1,4-diamino-2,3-dicyano-1,4-bis(2-aminophenylthio)butadiene] | significant increase | increased | decreased
